# Experimental data from patent publication US6887873B2, “Triazine derivatives and their application as antitelomerase agents” (Aventis Pharma S.A., priority 2001, dated 2005).
# pIC50: −log10 of the molar value.
# Columns and labels:
# [1] = tested on: human telomerease (HL60 cell extract); experiment: Antitelomerease activity: extension of oligonucleotide TS followed by PCR amplification, with HL60 extract; assay type: biochemical; details: read-out: TRAP IC50
# Method: The antitelomerease biological activity is determined by the following experimental protocol:
# The leukaemia line HL60 is obtained from ATCC (American Type Culture Collection, Rockville, USA). The cells are cultured in suspension in RPMI 1640 medium containing L-glutamine at 2 mM, penicillin 200 U/ml, streptomycin 200 μg/ml, gentamycin 50 μg/ml and supplemented with 10% heat-inactivated foetal calf serum.
# An aliquot of 10^5 cells is centrifuged at 3000×G and the supernatant discarded. The cell pellet is resuspended by several successive pipettings in 200 μl of lysis buffer containing 0.5% CHAPS, 10 mM Tris-HCl, pH 7.5, 1 mM MgCl2, 1 mM EGTA, 5 mM β-mercaptoethanol, 0.1 mM PMSF and 10% glycerol and is stored in ice for 30 minutes. The lysate is centrifuged at 160,000×G for 20 minutes at 4° C. and 160 μl of supernatant are recovered. The proteins in the extract are assayed by the Bradford method. The extract is stored at −80° C.
# The inhibition of the telomerease activity is determined by a protocol for extension of the oligonucleotide TS (^5′AATCGTTCGAGCAGAGTT^3′), in the presence of a cellular extract enriched in telomerease activity and compounds which are added at various concentrations (10, 1, 0.1 and 0.01 μM). The extension reaction is followed by a PCR amplification of the extension products with the aid of the oligonucleotides TS and CXext (^5′[…]^3′).
# The reaction medium is prepared based on the following composition:
# The oligonucleotides are obtained from Eurogentec (Belgium) and are stored at −20° C. at a stock concentration of 1 mg/ml in distilled water.
# The reaction samples are assembled in 0.2 ml PCR tubes and one drop of paraffin oil is deposited on each of the reactions of the experiment before closing the tubes.
# The reaction samples are then incubated in a Cetus 4800-type PCR apparatus under the following temperature conditions: • 15 minutes at 30° C., • 1 minute at 90° C., • followed by 30 cycles of, • 30 seconds at 94° C., • 30 seconds at 50° C., • and 1 minute 30 seconds at 72° C., • followed by a final cycle of 2 minutes at 72° C.
# For each of the samples, an aliquot of 10 μl is pipetted under the oil layer and mixed with 5 μl of a loading buffer containing:
# The samples are then analysed by electrophoresis on 12% acrylamide gel in a 1×TBE buffer for 1 hour at a voltage of 200 volts, with the aid of a Novex electrophoresis system.
# The acrylamide gels are then dried on a sheet of Whatmann 3 mm paper at 80° C. for 1 hour.
# The analysis and the quantification of the reaction products are carried out with the aid of an InstantImager apparatus (Pacard).
# For each compound concentration tested, the results are expressed as percentage inhibition of the reaction and calculated from the untreated enzymatic control and from the enzyme-free sample (blank) according to the following formula: (compound value−blank value/enzymatic control value−blank value)×100.
# The concentration of compound inducing a 50% inhibition of the telomerease reaction (IC50) is determined with the aid of a semilogarithmic graphical representation of the inhibition values obtained as a function of each of the compound concentrations tested.
# A compound is considered to be active as an antitelomerease agent when the quantity inhibiting 50% of the telomerease reaction is in particular less than 5 μM.
# [2] = tested on: G-quadruplex of oligonucleotide GGGTTAGGGTTAGGGTTAGGG (3.5 repeats of the human telomereic motif); experiment: G-quadruplex stabilizing activity, fluorescence Tm (FAM+DABCYL oligonucleotide); assay type: binding
# Text: The G-quadruplex stabilizing activity may be determined by a method using the formation of a complex with fluorescein of which the experimental protocol is described below.
# All the nucleotides, modified or otherwise, were synthesized by Eurogentec SA, Seraing, Belgium. The oligonucleotide FAM+DABCYL carries the catalogue reference OL-0371-0802. It has the sequence: […] corresponding to 3.5 repeats of the human telomereic motif (strand rich in G). The fluorescein is attached to the 5′ end, the DABCYL to the 3′ end, by the chemical arms described by Eurogentec. The concentration of the samples is checked by spectrophotometry, recording the absorbance spectrum between 220 and 700 nm and using the molar extinction coefficient provided by the supplier.
# All the experiments were carried out in a 10 mM sodium cacodylate buffer pH 7.6 containing 0.1 M lithium chloride (or sodium chloride). The absence of fluorescent contamination in the buffer was checked beforehand. The fluorescent oligonucleotide is added at the final concentration of 0.2 μM.
# All the measurements of fluorescence were carried out on a Spex Fluorolog DM1B apparatus, using an excitation line width of 1.8 nm and an emission line width of 4.5 nm. The samples are placed in a microquartz cuvette of 0.2×1 cm. The temperature of the sample is controlled by an external water bath. The oligonucleotide alone was analysed at 20, 30, 40, 50, 60, 70 and 80° C. The emission spectra are recorded using an excitation wavelength of 470 nm. The excitation spectra are recorded using either 515 nm or 588 nm as emission wavelength. The spectra are corrected for the response of the instrument by reference curves. A high extinction (80-90%) of the fluorescence of fluorescein at room temperature is observed, in agreement with an intramolecular folding of the oligonucleotide at 20° C. in the form of a G-quadruplex, which induces juxtaposition of its 5′ and 3′ ends which are respectively linked to fluorescein and to DABCYL. This juxtaposition causes an already-described phenomenon of extinction of fluorescence which is used for “molecular beacons”.
# An oligonucleotide stock solution at the strand concentration of 0.2 μM in 0.1 M LiCl, 10 mM cacodylate buffer, pH 7.6, is prepared beforehand, heated briefly at 90° C. and slowly cooled to 20° C., and then distributed in aliquots of 600 μl in the fluorescence cuvettes. 3 μl of water (for the control) or 3 μl of test product (stock at 200 μM, final concentration 1 μM) are then added and mixed. The samples are then allowed to incubate for at least 1 hour at 20° C. before each measurement. The use of longer incubation times (up to 24 hours) has no influence on the result obtained.
# Each experiment allows the measurement of only one sample. The latter is first incubated at an initial temperature of 20° C., heated to 80° C. over 38 minutes, left for 5 minutes at 80° C. and then cooled to 20° C. over 62 minutes. During this time, the fluorescence is measured simultaneously at two emission wavelengths (515 nm and 588 nm) using 470 nm as excitation wavelength. A measurement is carried out every 30 seconds. The temperature of the water bath is recorded in parallel, and the fluorescence profile as a function of the temperature is reconstituted from these values. The fluorescence profiles are then normalized between 20° C. and 80° C., and the temperature for which the intensity of emission at 515 nm is the mean of those at high and low temperature is called Tm. Under these conditions, the Tm of the reference sample without addition of product is 44° C. in a lithium chloride buffer. This temperature is increased to more than 55° C. in a sodium chloride buffer. The addition of a G-quadruplex-stabilizing compound induces an increase in the Tm. This increase is judged to be significant if it is greater than 3°.
SMILES,pIC50 [1],G4 delta Tm [2] [°C]
Cc1cc(N(C)C)c2cc(Nc3nc(Nc4ccc5nc(C)cc(N(C)C)c5c4)nc(N4CCOCC4)n3)ccc2n1 [Example 24],5.80,9.7
COCCNc1nc(Nc2ccc3nc(C)cc(N(C)C)c3c2)nc(Nc2ccc3nc(C)cc(N(C)C)c3c2)n1 [Example 25],5.66,4.2
Cc1cc(N(C)C)c2cc(Nc3nc(NCCc4ccccc4)nc(Nc4ccc5nc(C)cc(N(C)C)c5c4)n3)ccc2n1 [Example 26],5.96,4.8
"Cc1cc(N)c2cc(Nc3nc(Nc4ccc5nc(C)cc(N)c5c4)nc(OCCCN(C)C)n3)ccc2n1 [Example 31, 2,4-bis(4-amino-2-methylquinolin-6-yl)amino-6-(3-dimethylaminopropyl)oxy-[1,3,5]triazine]",6.52,15.3
"Cc1cc(N)c2cc(Nc3nc(Nc4ccc5nc(C)cc(N)c5c4)nc(Oc4ccncc4)n3)ccc2n1 [Example 32, 2,4-bis(4-amino-2-methylquinolin-6-yl)amino-6-(pyridin-4-yl)oxy-[1,3,5]triazine]",6.52,10.0
"Cc1cc(N)c2cc(Nc3nc(Nc4ccc5nc(C)cc(N)c5c4)nc(OCc4ccccc4)n3)ccc2n1 [Example 33, 2,4-bis(4-amino-2-methylquinolin-6-yl)amino-6-(phenylmethyl)oxy-[1,3,5]triazine]",6.40,10.0
CC(=O)NCCNc1nc(Nc2ccc3nc(C)cc(N)c3c2)nc(Nc2ccc3nc(C)cc(N)c3c2)n1 [Example 35],6.30,11.0
CCN(CC)CCNc1nc(Nc2ccc3nc(C)cc(N)c3c2)nc(Nc2ccc3nc(C)cc(N)c3c2)n1 [Example 36],6.62,17.5
Cc1cc(N)c2cc(Nc3nc(NCCN(CCN(C)C)Cc4ccccc4)nc(Nc4ccc5nc(C)cc(N)c5c4)n3)ccc2n1 [Example 37],6.64,17.5
COC(=O)NCCNc1nc(Nc2ccc3nc(C)cc(N)c3c2)nc(Nc2ccc3nc(C)cc(N)c3c2)n1 [Example 38],6.00,9.5
Cc1cc(N)c2cc(Nc3nc(NCCN(C(C)C)C(C)C)nc(Nc4ccc5nc(C)cc(N)c5c4)n3)ccc2n1 [Example 39],6.64,19.5
CCN(CC)CCN(CCN(CC)CC)c1nc(Nc2ccc3nc(C)cc(N)c3c2)nc(Nc2ccc3nc(C)cc(N)c3c2)n1 [Example 40],6.64,19
Cc1cc(N)c2cc(Nc3nc(Nc4ccc5nc(C)cc(N)c5c4)nc(N4CCCN(C)CC4)n3)ccc2n1 [Example 42],7.30,15.5
CCN(CC)CCN1CCN(c2nc(Nc3ccc4nc(C)cc(N)c4c3)nc(Nc3ccc4nc(C)cc(N)c4c3)n2)CC1 [Example 44],7.00,17
Cc1cc(N)c2cc(Nc3nc(NCCN4CCCC4)nc(Nc4ccc5nc(C)cc(N)c5c4)n3)ccc2n1 [Example 46],6.00,18.5
Cc1cc(N)c2cc(Nc3nc(Nc4ccc5nc(C)cc(N)c5c4)nc(N(C)CC4CCN(C)CC4)n3)ccc2n1 [Example 48],7.00,14
Cc1cc(N)c2cc(Nc3nc(NCc4ccccn4)nc(Nc4ccc5nc(C)cc(N)c5c4)n3)ccc2n1 [Example 49],6.00,10
Cc1cc(N)c2cc(Nc3nc(NCc4ccccc4)nc(Nc4ccc5nc(C)cc(N)c5c4)n3)ccc2n1 [Example 50],6.66,7
COc1cccc(CNc2nc(Nc3ccc4nc(C)cc(N)c4c3)nc(Nc3ccc4nc(C)cc(N)c4c3)n2)c1 [Example 52],5.89,6.5
CCN(CCN(C)C)c1nc(Nc2ccc3nc(C)cc(N)c3c2)nc(Nc2ccc3nc(C)cc(N)c3c2)n1 [Example 53],6.70,15.5
Cc1cc(N)c2cc(Nc3nc(NCC[N+](C)(C)C)nc(Nc4ccc5nc(C)cc(N)c5c4)n3)ccc2n1 [Example 54],6.77,16
Cc1cc(N)c2cc(Nc3nc(Nc4ccc5nc(C)cc(N)c5c4)nc(Nc4cccc5cn[nH]c45)n3)ccc2n1 [Example 56],6.46,2.5
Cc1cc(N)c2cc(Nc3nc(Nc4ccc5nc(C)cc(N)c5c4)nc(N4CCN(CCc5ccccc5)CC4)n3)ccc2n1 [Example 57],6.52,8
Cc1cc(N)c2cc(Nc3nc(Nc4ccc5nc(C)cc(N)c5c4)nc(N4CCN(c5ncccn5)CC4)n3)ccc2n1 [Example 58],6.66,6
Cc1cc(N)c2cc(Nc3nc(Nc4ccc5nc(C)cc(N)c5c4)nc(N4CCN(c5ccncc5)CC4)n3)ccc2n1 [Example 59],6.72,11
Cc1cc(N)c2cc(Nc3nc(Nc4ccc5nc(C)cc(N)c5c4)nc(N4CCN(CCCN(C)C)CC4)n3)ccc2n1 [Example 64],7.05,12
Cc1cc(N)c2cc(Nc3nc(Nc4ccc5nc(C)cc(N)c5c4)nc(N(C)C4CCN(Cc5ccccc5)C4)n3)ccc2n1 (centres unmarked) [Example 65],6.00,12.5
Cc1cc(N)c2cc(Nc3nc(NCc4cccnc4)nc(Nc4ccc5nc(C)cc(N)c5c4)n3)ccc2n1 [Example 66],6.55,9
